Drawing on PubChem BioAssay (NCI), this text covers TGI and GI50 for 10 compounds.

Among the test systems are ACHN renal; HT29 colon; SNB-75 CNS; COLO 205 colon; SR leukemia; EKVX NSCLC; MALME-3M melanoma; A549 NSCLC; HOP-92 NSCLC; LOX IMVI melanoma.
Holding throughout (experiment): NCI anticancer screen, dose series, 48 h

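Growth conditions: 96-well plates. Treatment: test compound, 48 hours, 5 concentrations. Analysis: linear interpolation between bracketing concentrations; unreached endpoints set to highest concentration. Abbreviation: GI50, concentration required for 50% inhibition of growth. TGI marks complete inhibition of growth.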

Consider `COC1CC(OS(=O)(=O)c2ccc(C)cc2)C(OS(=O)(=O)c2ccc(C)cc2)C(COS(=O)(=O)c2ccc(C)cc2)O1` (centres undefined), for which the TGI in the assay on ACHN renal was 12.7 µM; in the assay with HT29 colon it was 15.1 µM; in the assay on SNB-75 CNS it was 2.48 µM; with COLO 205 colon it was above 100 µM; in the assay with SR leukemia, 33.6 µM; in the assay on EKVX NSCLC, 24.4 µM. The TGI came to 8.57 µM with MALME-3M melanoma and 19.3 µM in the assay on A549 NSCLC.
With `Cc1c(Cl)cccc1NC(=O)c1sc2nc3c(cc2c1N)CCCCCC3`, the GI50 with ACHN renal is 0.465 µM; in the assay with HOP-92 NSCLC, 0.164 µM; in the assay on HT29 colon, 0.188 µM; with COLO 205 colon it was 0.285 µM; in the assay with SR leukemia, 0.101 µM; with EKVX NSCLC it was 0.234 µM. Moreover, the GI50 was 0.3 µM with LOX IMVI melanoma and 0.369 µM with A549 NSCLC. Moreover, the TGI is above 50 µM with ACHN renal; 16.1 µM with HOP-92 NSCLC; 6.56 µM with HT29 colon; above 50 µM in the assay on COLO 205 colon; above 50 µM in the assay with SR leukemia; above 50 µM in the assay with EKVX NSCLC. Further, the TGI with LOX IMVI melanoma and in the assay on A549 NSCLC was above 50 µM each time.
For the compound `Cc1ccc(NC2=C(Sc3ccc(Cl)cc3)C(=O)N(Cc3ccccc3)C2=O)cc1Cl`, the GI50 in the assay with ACHN renal is 4.91 µM; in the assay with HOP-92 NSCLC, 4.59 µM; in the assay with HT29 colon, 10.4 µM; in the assay with SNB-75 CNS, 3.92 µM; in the assay with COLO 205 colon, 31.9 µM; with SR leukemia, 2.86 µM. Besides, the GI50 was 26.7 µM with EKVX NSCLC, 4.84 µM in the assay on LOX IMVI melanoma and 3.38 µM in the assay with A549 NSCLC. Moreover, the TGI with ACHN renal was 17.1 µM; with HOP-92 NSCLC it was 17 µM; in the assay on HT29 colon, above 100 µM; in the assay on SNB-75 CNS it was 19.4 µM; in the assay with COLO 205 colon, above 100 µM; with SR leukemia it was 8.12 µM. The values for the TGI in the assay on EKVX NSCLC, with LOX IMVI melanoma and in the assay on A549 NSCLC were above 100 µM, 17.1 µM and 15.9 µM, respectively.
For `O[C@]12CCCC[C@H]1CCC2`, the TGI with ACHN renal, in the assay on HOP-92 NSCLC, with HT29 colon, with SNB-75 CNS, in the assay with COLO 205 colon and with EKVX NSCLC was above 100 µM throughout. The TGI in the assay with MALME-3M melanoma, in the assay with LOX IMVI melanoma and in the assay on A549 NSCLC was above 100 µM throughout.
Turning to `Nc1ncc(-c2ccc(C(F)(F)F)cc2)c(NC2CCCCCC2)n1`, the GI50 in the assay on ACHN renal is 33.8 µM; in the assay with HT29 colon, 40.6 µM; in the assay on SNB-75 CNS, 43.4 µM; with COLO 205 colon it was 19.5 µM; with SR leukemia, 13.2 µM; in the assay on MALME-3M melanoma, 18.6 µM. In the assay on A549 NSCLC, the GI50 was 16.5 µM. For the same compound, the TGI in the assay with ACHN renal is above 100 µM; with HT29 colon, above 100 µM; with SNB-75 CNS it was above 100 µM; in the assay with COLO 205 colon, 36.7 µM; with SR leukemia, 57.2 µM; in the assay with MALME-3M melanoma, 81.8 µM. In the assay on A549 NSCLC, this compound gave a TGI above 100 µM.
As for `O=c1[nH]nc2c3c(cccc13)NC(CN1Cc3ccccc3C1)=N2`, the GI50 with ACHN renal was 4.92 µM; in the assay with HT29 colon it was 3.45 µM; in the assay on SNB-75 CNS, 2.77 µM; with COLO 205 colon, 4.09 µM; in the assay with SR leukemia, 5.13 µM; in the assay on EKVX NSCLC, 3.92 µM. Also, the GI50 in the assay with MALME-3M melanoma was 49.1 µM; in the assay on LOX IMVI melanoma, 3.16 µM; with A549 NSCLC, 5.69 µM. Further, the TGI is above 100 µM in the assay on ACHN renal; above 100 µM in the assay with HT29 colon; above 100 µM with SNB-75 CNS; 89.7 µM with COLO 205 colon; above 100 µM with SR leukemia; above 100 µM in the assay with EKVX NSCLC. Besides, the TGI in the assay on MALME-3M melanoma, with LOX IMVI melanoma and in the assay on A549 NSCLC was above 100 µM in each case.
`CCC(C)/C=C(C)/C=C/C(=O)c1c(O)c(-c2ccc(O)cc2)c[nH]c1=O` (centres undefined): the GI50 with ACHN renal is 3.53 µM; in the assay with HT29 colon, 3.77 µM; with SNB-75 CNS, 3.3 µM; with COLO 205 colon, 7.2 µM; with SR leukemia, 2.39 µM; with EKVX NSCLC, 4.08 µM. In addition, the GI50 with MALME-3M melanoma was 2.36 µM; with LOX IMVI melanoma, 3.49 µM; in the assay on A549 NSCLC, 4.3 µM. In addition, the TGI with ACHN renal was found to be 14.2 µM; in the assay with HT29 colon it was 14.6 µM; with SNB-75 CNS, 14.3 µM; in the assay with COLO 205 colon, 19.5 µM; in the assay with SR leukemia, 6.49 µM; in the assay on EKVX NSCLC, 17.6 µM. Besides, the TGI was 14.1 µM in the assay on MALME-3M melanoma, 13.2 µM in the assay on LOX IMVI melanoma and 20.1 µM in the assay on A549 NSCLC.
In the case of `O=[N+]([O-])c1cc(Br)cc2c1[nH]c1ccc(Br)cc12`, the GI50 is 3.31 µM with ACHN renal; 7.85 µM with HOP-92 NSCLC; 4.03 µM in the assay on HT29 colon; 2.12 µM in the assay with SNB-75 CNS; 4.7 µM with COLO 205 colon; 3.19 µM in the assay on EKVX NSCLC. The GI50 was 10.8 µM with MALME-3M melanoma, 4.9 µM in the assay with LOX IMVI melanoma and 6.11 µM in the assay with A549 NSCLC. In addition, the TGI with ACHN renal is 19.9 µM; in the assay on HOP-92 NSCLC it was 36.5 µM; with HT29 colon, above 100 µM; with SNB-75 CNS it was 14.8 µM; in the assay with COLO 205 colon it was above 100 µM; with EKVX NSCLC it was above 100 µM. The TGI in the assay with MALME-3M melanoma is 66.3 µM; in the assay with LOX IMVI melanoma it was above 100 µM; in the assay on A549 NSCLC, 45 µM.
In the case of `O=C(Nc1cc(Cl)ccc1O)c1cccc(NC2=C(Cl)C(=O)N(Cc3ccccc3)C2=O)c1`, the GI50 with ACHN renal is 35.6 µM; in the assay with HT29 colon it was 35.9 µM; in the assay with COLO 205 colon, 30.9 µM; in the assay with SR leukemia it was 4.8 µM; in the assay with EKVX NSCLC, above 100 µM; in the assay with MALME-3M melanoma, 30.5 µM. Moreover, the GI50 with LOX IMVI melanoma is 15.7 µM; in the assay with A549 NSCLC it was 36.9 µM. For the same compound, the TGI was above 100 µM in the assay with ACHN renal; above 100 µM in the assay on HT29 colon; above 100 µM in the assay with COLO 205 colon; 22.8 µM in the assay on SR leukemia; above 100 µM with EKVX NSCLC; 86.4 µM in the assay on MALME-3M melanoma. For the same compound, the TGI in the assay on LOX IMVI melanoma was 32.1 µM; with A549 NSCLC, above 100 µM.
As for `CC(=O)O[C@@H]1CC(C)C2CC2C2=C(C(O)OC2O)[C@@H]1C(C)CCC=C(C)C` (some centres undefined), the TGI is 90.5 µM in the assay with ACHN renal; 35.5 µM with HOP-92 NSCLC; 35.5 µM in the assay on HT29 colon; 76.1 µM in the assay with SNB-75 CNS; 32.5 µM in the assay with COLO 205 colon; above 100 µM with EKVX NSCLC. For the same compound, the TGI was found to be 67 µM with MALME-3M melanoma, 40.9 µM in the assay with LOX IMVI melanoma and 51.7 µM in the assay with A549 NSCLC.
